For one assay, the system named is hemorrhagic shock. The assay is described as follows: Hemorrhagic shock with enteral/IV/IP treatments: intestine, plasma and lung injury (Example 2). The assay is classed as in vivo, rat. As to the method:
Adult male Sprague Dawley rats (mean±standard deviation (SD) body weight 340±60 g, N=64, Harlan, Indianapolis, Ind.) were allowed food and water ad libitum prior to surgery. Rats were administered general anesthesia (xylazine, 4 mg/kg; ketamine 75 mg/kg IM) and remained anesthetized throughout the experiment. At the termination of experiments, rats were euthanized by infusion of B-Euthanasia IV (120 mg/kg). The femoral artery and vein were cannulated. Systolic, diastolic, heart rate, and mean arterial pressure (MAP) were recorded throughout the procedure using LabChart (AD Instruments, Dunedin, New Zealand).
Hemorrhagic Shock (HS) with Removal of Luminal Contents—Animals were grouped into no-HS (No-HS), HS with intestinal luminal contents flushed (HS-F), and HS without intestinal flush (HS-NF). No-HS animals were immediately sacrificed for tissue collection following cannulation. All other animals were subject to laparotomy before the intestine was exposed and gross morphology was photographically recorded. Enteral treatments were administered to the intestine before returning to the peritoneal cavity (Table 1). IV/IP injections were delivered following the intestinal injections.
Following the intestinal preparations, the animals were heparinized to minimize clotting in catheters and in shed blood samples (1 U/mL of calculated blood volume i.v.; assuming 6 mL blood volume per 100 g total body weight) before onset of hemorrhage. MAP was reduced to 30 mmHg by withdrawal of blood through the venous catheter (0.4 mL/min) with a 5 mL syringe. The initial 1 mL of blood drawn was collected, centrifuged (1000 g, 5 min), and the plasma was immediately frozen at […] for further analysis. The arterial pressure was monitored and adjusted by withdrawal/return of blood over the 90-min ischemic period. At the end of ischemia, the shed blood was returned to the animals (0.5 mL/min) plus 1 mL of saline (to replace the 1 mL of blood collected before shock).
Gross morphology images of the intestine were captured at the end of the reperfusion period. Post-HS blood was collected through the arterial catheter, spun (1000 g, 5 min), and the plasma was immediately frozen at […]. The animals were then euthanized and lung and jejunum specimen were snap frozen for homogenization or embedded in optimum cutting temperature (O.C.T.) (Saukura, Leiden, the Netherlands) for histological sectioning. Jejunum was chosen for analysis, as more intestinal hemorrhage is typically seen there than in the ileum in models of HS.
After hemorrhagic shock, bronchoalveolar lavage fluid (BALF) was collected by inserting an 18 gauge blunt needle into the left main bronchus of the left lung. The lunch was photographed to assess gross morphological damage. The images were blindly assessed for macroscopic lung damage. Scoring was as follows: 0, no visible lung damage and pink in color; 1, mostly pink in color with some dark red lesions starting to form around the central part of the lung near the trachea; 2, some pink color with more lesions forming and spreading throughout the lung; 3, dark red lesions through the majority of the lung surface; 4, complete lung damage in all parts of the organ surface.
To collect BALF fluid, saline (˜2.0 ml/lavage) was injected and recovered three times before centrifugation (1000 g, 5 min). Following the third wash, the lung was injected with O.C.T., embedded, and frozen. The total volume of recovered BALF fluid was measured and the fraction of saline recovered versus the amount injected was used to normalize all measurements.
Intestinal Hemorrhage—Segments of jejunum were mechanically homogenized by weight (10 ml per 1 g; 18,000 g, 20 min; stored at −80° C.) in 0.5% hexadecyltrimethyl-ammonium bromide (HTAB) in PBS (pH 6.0). Any luminal content present in the segment was included in the weighing and homogenization. […]

In assay [1] the test system is ischemic small intestine segments (jejunum to ileum). Nature of the assay: Ex vivo intestinal ischemia: transmural fluorescein transport across wall of flushed intestinal segments. Details: species or system rat. From the text: Intestinal Ischemia—Since intestinal properties are non-homogenous, the transmural permeability was investigated over the entire length of the jejunum and ileum. Due to physical constraints of the small intestine anatomy, it is not feasible to simultaneously analyze permeability from multiple segments in vivo. Therefore, an ex vivo approach similar to previously published studies was designed to measure permeability along the length of the small intestine.
A midline incision was made to expose the intestine in anesthetized rats. The proximal end of the jejunum (approximately 5 cm distal from the ligament of Treitz) was cannulated with a female luer to barb tube connector (⅛″ inner diameter). The intestine was removed and placed in saline immediately before euthanasia. In order to focus the analysis on permeability of the intestinal wall during ischemia in the absence of luminal contents (including the digestive proteases or cytotoxic factors from food), the lumen of the intestine was flushed with 40 ml saline using pulsatile pressure. Visual examination confirmed all solid contents were removed. Next, the intestine was cut into eight equal length segments (˜8 cm) sequentially ordered from the proximal jejunum (position 1) to the distal ileum (position 8). Both ends of each segment were cannulated with Female Luer to Barb tube connectors (thus allowing entry and exit points from the intestinal lumen to be sealed completely), secured with 4-0 suture, and the exterior portion of one adaptor on each segment sealed with clay.
To determine the transmural permeability of the intestine, all 8 segments from each animal were filled with a low molecular weight tracer as a sensitive measure of early barrier breakdown prior to the initiation of ischemia, fluorescein (332 Da M.W., 20 μg/ml from 5 mg/ml stock in ethanol; 0.308 osm/L; Sigma-Aldrich, St. Louis, Mo.) mixed with saline, glucose (100 mg/ml in saline; 0.550 moles/L; 0.863 osm/L, Sigma-Aldrich), the non-metabolizing glucose analog mannitol (100 mg/ml in saline; 0.550 moles/L; 0.863 osm/L), the serine protease inhibitor tranexamic acid (31 mg/ml in saline; 0.200 moles/L; 0.508 osm/L, Sigma-Aldrich), the MMP inhibitor doxycycline hyclate (1 mg/ml in saline; 1.955×10^−3 moles/L; 0.310 osm/L, Sigma-Aldrich), or the MMP inhibitor GM 6001 [38] (1 μg/ml in saline from 1 mg/ml stock in DMSO; 2.57×10^−6 moles/L; 0.308 osm/L, Millipore, Billerica, Md.). […]
Sealed segments were rinsed in saline, individually placed in 15 ml conical tubes containing 6 ml saline, and incubated at 37° C. for 2 hours to simulate ischemic conditions. […] Plates were read in a plate reader (FilterMax F-5 Multi-mode, Molecular Devices, Sunnyvale, Calif.) for concentration of fluorescein (excitation 494/emission 521) to measure diffusion across the wall of the intestine.
Permeability Analysis—To determine the fluorescein transport across the ischemic intestinal wall, the fluorescence at time 0 was subtracted from fluorescence values at later time points to correct for background, and fluorescence values were corrected to account for the volume reduction due to sampling during the experiment. The RFU measurements were converted to equivalent moles by using the linear relationship between concentration and fluorescein fluorescence (not shown, R^2=0.999). The transport of fluorescein across the wall (measured in moles, per time) was computed as the change in fluorescence over a 30 min interval divided by 30 min.

For the compound `O=C[C@H](O)[C@@H](O)[C@H](O)[C@H](O)CO` [Glucose, glucose], in the assay with hemorrhagic shock (after HS), the “MPO activity of intestinal homogenates” value is “tended to be lower”, the “gross morphology of the intestine (microhemorrhages)” value was “microhemorrhages most severely” and the “macroscopic lung injury (lung injury score)” value is “trend in reduction”. Besides, the “plasma MMP-9 and neutrophil derived pro-MMP-9 activity” value in the assay on hemorrhagic shock (post-HS plasma, gel zymography) is reported as “significantly more activity compared to HS+SAL”. In addition, the “fluorescein transport across the wall of the intestine” value in assay [1] (ex vivo, treatment in lumen, two-hour ischemic period) was “drastically reduced”.

Regarding `NC[C@H]1CC[C@H](C(=O)O)CC1` [tranexamic acid], in the assay with hemorrhagic shock (after HS), the “MPO activity of intestinal homogenates” value is “tended to be lower” and the “gross morphology of the intestine (microhemorrhages)” value is recorded as “fewer regions with microhemorrhages”. For the same compound, in the assay on hemorrhagic shock (after HS, immunoblot), the “lung VE-cadherin levels” value is recorded as “significantly reduced” and the “lung VEGFR-2 levels” value is “maintained”. Also, in assay [1] (ex vivo ischemia, inhibitor in lumen without glucose, vs saline), the “fluorescein transport rates, 30-60 min and 60-90 min periods” value is listed as “significantly decreased compared to the saline treated intestines”.

For the origin of these results see US20150297619A1, “METHODS AND COMPOSITIONS FOR PRESERVING THE MUCOSAL BARRIER” (priority 2014, published 2015).
